The target in assay [1] is human D3 dopamine receptor (Homo sapiens (Human), UniProt P35462). Put plainly: Radioligand binding (125I-IABN competition), D3. The conditions noted are these: for Ki: 125I-IABN competition, HEK cell membranes expressing human D3; for D2/D3 (D3 selectivity ratio, D2 Ki/D3 Ki): calculated D2 Ki/D3 Ki. The protocol: (§1) The affinities of the target compounds were determined using radioligand binding experiments. […] Competition curves were modeled for a single site. Data from competition dose-response curves were analyzed using Tablecurve program (Jandel). IC50 values were converted to equilibrium dissociation constants (Ki values) using the Cheng and Prusoff correction.

In assay [2] the target is human D2-long dopamine receptor (Homo sapiens (Human), UniProt P14416). Put plainly: Radioligand binding (125I-IABN competition), D2. The following applies: HEK cell membranes expressing human D2-long. The protocol:
as §1

Sequence of human D2-long dopamine receptor (P14416 whole entry): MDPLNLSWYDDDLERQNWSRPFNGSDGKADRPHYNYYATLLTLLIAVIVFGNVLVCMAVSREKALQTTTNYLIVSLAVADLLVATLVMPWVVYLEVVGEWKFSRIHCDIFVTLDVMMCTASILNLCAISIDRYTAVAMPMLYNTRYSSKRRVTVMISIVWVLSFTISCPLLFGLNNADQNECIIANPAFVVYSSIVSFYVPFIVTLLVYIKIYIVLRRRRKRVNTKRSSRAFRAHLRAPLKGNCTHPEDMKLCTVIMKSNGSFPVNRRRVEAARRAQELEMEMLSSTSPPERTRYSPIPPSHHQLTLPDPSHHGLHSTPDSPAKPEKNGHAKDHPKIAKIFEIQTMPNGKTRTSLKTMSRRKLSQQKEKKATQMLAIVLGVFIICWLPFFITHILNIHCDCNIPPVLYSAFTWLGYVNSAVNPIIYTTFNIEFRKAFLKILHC
Sequence of human D3 dopamine receptor (P35462 whole entry): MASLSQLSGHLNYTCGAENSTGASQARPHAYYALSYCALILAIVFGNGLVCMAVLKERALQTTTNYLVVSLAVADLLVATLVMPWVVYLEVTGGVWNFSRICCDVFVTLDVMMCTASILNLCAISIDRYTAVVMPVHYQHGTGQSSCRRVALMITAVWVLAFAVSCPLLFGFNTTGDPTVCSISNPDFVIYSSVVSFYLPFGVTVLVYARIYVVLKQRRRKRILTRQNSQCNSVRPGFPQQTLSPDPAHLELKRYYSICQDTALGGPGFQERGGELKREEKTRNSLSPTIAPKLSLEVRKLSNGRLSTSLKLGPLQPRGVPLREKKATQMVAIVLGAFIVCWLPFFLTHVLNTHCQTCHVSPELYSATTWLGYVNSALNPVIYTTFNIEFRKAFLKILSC

For `CC(C)(C)c1nc(N2CCN(CCCCNC(=O)N3CCN(c4ccncc4)CC3)CC2)cc(C(F)(F)F)n1` [Compound 31, N-(4-(4-(2-(tert-Butyl)-6-(trifluoromethyl)pyrimidin-4-yl)piperazin-1-yl)butyl)-4-(pyridin-4-yl)piperazine-1-carboxamide], the figures for the Ki in assay [1] and in assay [2] were 2.6 ± 0.3 nM and 97.4 ± 21.7 nM, respectively. In addition, the “D2/D3 (D3 selectivity ratio, D2 Ki/D3 Ki)” value in assay [1] was 38.

On to `Cc1cc(N2CCN(CCCCNC(=O)C3CCN(c4ccc(C(F)(F)F)cn4)CC3)CC2)nc(C(C)(C)C)n1` [Compound 107, N-(4-(4-(2-(tert-Butyl)-6-methylpyrimidin-4-yl)piperazin-1-yl)butyl)-1-(5-(trifluoromethyl)pyridin-2-yl)piperidine-4-carboxamide], for which, in assay [1], the inhibition constant (Ki) worked out at 30.6 ± 7.4 nM and the “D2/D3 (D3 selectivity ratio, D2 Ki/D3 Ki)” value is 32. The Ki in assay [2] came out at 970 ± 137 nM.

For `CC(C)(C)c1nc(N2CCN(CCCCNC(=O)N3CCC(Cc4ccccc4)CC3)CC2)cc(C(F)(F)F)n1` [Compound 50, 4-Benzyl-N-(4-(4-(2-(tert-butyl)-6-(trifluoromethyl)pyrimidin-4-yl)piperazin-1-yl)butyl)piperidine-1-carboxamide], in assay [1], the Ki is 18.4 ± 2.6 nM and the “D2/D3 (D3 selectivity ratio, D2 Ki/D3 Ki)” value is on record as 33. The compound further yielded a Ki in assay [2] of 603 ± 104 nM.

Consider `O=C(NCCCCN1CCN(c2ccc3ccccc3n2)CC1)N1CCN(c2ccccc2)CC1` [Compound 84, 4-Phenyl-N-(4-(4-(quinolin-2-yl)piperazin-1-yl)butyl)piperazine-1-carboxamide], for which the results for the Ki in assay [1] and in assay [2] were 95.7 ± 14.6 nM and 2610 ± 79.1 nM, respectively. The “D2/D3 (D3 selectivity ratio, D2 Ki/D3 Ki)” value in assay [1] was 27.

As to `CC(C)(C)c1nc(N2CCN(CCCCNC(=O)N3CCN(CC4CC4)CC3)CC2)cc(C(F)(F)F)n1` [Compound 68, N-(4-(4-(2-(tert-Butyl)-6-(trifluoromethyl)pyrimidin-4-yl)piperazin-1-yl)butyl)-4-(cyclopropylmethyl)piperazine-1-carboxamide], in assay [1], the Ki worked out at 13.8 ± 2.4 nM and the “D2/D3 (D3 selectivity ratio, D2 Ki/D3 Ki)” value is given as 13. For the same compound, in assay [2], affinity was put at a Ki of 184 ± 46.6 nM.

As for `CC(C)(C)c1cc(N2CCN(CCCCNC(=O)N3CCN(c4ccccc4)CC3)CC2)cc(C(C)(C)C)c1` [Compound 86, N-(4-(4-(3,5-Di-tert-butylphenyl)piperazin-1-yl)butyl)-4-phenylpiperazine-1-carboxamide], the Ki in assay [1] came to 110 ± 11.6 nM; in assay [2], 1850 ± 197 nM. In addition, the “D2/D3 (D3 selectivity ratio, D2 Ki/D3 Ki)” value in assay [1] was 17.

As to `CC(C)(C)c1nc(N2CCN(CCCCNC(=O)N3CCN(C4CC4)CC3Cc3ccccc3)CC2)cc(C(F)(F)F)n1` (stereo not drawn) [Compound 67, 2-Benzyl-N-(4-(4-(2-(tert-butyl)-6-(trifluoromethyl)pyrimidin-4-yl)piperazin-1-yl)butyl)-4-cyclopropylpiperazine-1-carboxamide], in assay [1], the Ki is 73.8 ± 17.5 nM and the “D2/D3 (D3 selectivity ratio, D2 Ki/D3 Ki)” value is recorded as 8. Also, the Ki in assay [2] came to 626 ± 143 nM.

As to `O=C(NCCCCN1CCN(c2ncnc3ccccc23)CC1)c1cn2ccccc2n1` [Compound 127, N-(4-(4-(Quinazolin-4-yl)piperazin-1-yl)butyl)imidazo[1,2-a]pyridine-2-carboxamide], in assay [1], the Ki turned out to be 253 nM and the “D2/D3 (D3 selectivity ratio, D2 Ki/D3 Ki)” value is recorded as 4. The compound also gave a Ki in assay [2] of 1130 ± 63.8 nM.

Regarding `CC(C)(C)c1nc(N2CCN(CCCCNC(=O)N3CCN(CC=Cc4ccccc4)CC3)CC2)cc(C(F)(F)F)n1` [Compound 74, N-(4-(4-(2-(tert-Butyl)-6-(trifluoromethyl)pyrimidin-4-yl)piperazin-1-yl)butyl)-4-cinnamylpiperazine-1-carboxamide], the values for the Ki in assay [1] and in assay [2] were 66.8 ± 16.3 nM and 585 ± 72.7 nM, respectively. Further, the “D2/D3 (D3 selectivity ratio, D2 Ki/D3 Ki)” value in assay [1] is recorded as 9.

Turning to `O=C(NCCCCN1CCN(c2ccnc3ccccc23)CC1)c1nc2ccccn2c1Br` [Compound 128, 3-Bromo-N-(4-(4-(quinolin-4-yl)piperazin-1-yl)butyl)imidazo[1,2-a]pyridine-2-carboxamide], in assay [1], the Ki was found to be 285 ± 77 nM and the “D2/D3 (D3 selectivity ratio, D2 Ki/D3 Ki)” value is 8. For the same compound, the Ki in assay [2] amounted to 2330 ± 785 nM.

As for `CC(C)(C)c1nc(N2CCN(CCCCNC(=O)N3CCN(c4ccccc4)C(=O)C3)CC2)cc(C(F)(F)F)n1` [Compound 102, N-(4-(4-(2-(tert-Butyl)-6-(trifluoromethyl)pyrimidin-4-yl)piperazin-1-yl)butyl)-3-oxo-4-phenylpiperazine-1-carboxamide], in assay [1], the Ki turned out to be 19.2 nM and the “D2/D3 (D3 selectivity ratio, D2 Ki/D3 Ki)” value is on record as 50. This compound came in with a Ki in assay [2] of 962 nM.

Turning to `CN1CCC(N2CCN(C(=O)NCCCCN3CCN(c4cc(C(F)(F)F)nc(C(C)(C)C)n4)CC3)CC2)CC1` [Compound 76, N-(4-(4-(2-(tert-Butyl)-6-(trifluoromethyl)pyrimidin-4-yl)piperazin-1-yl)butyl)-4-(1-methylpiperidin-4-yl)piperazine-1-carboxamide], in assay [1], the Ki turned out to be 18 ± 3 nM and the “D2/D3 (D3 selectivity ratio, D2 Ki/D3 Ki)” value is recorded as 7. Affinity in assay [2] was put at a Ki of 125 ± 26.6 nM.

As to `O=C(NCCCCN1CCN(c2ccc3ccccc3n2)CC1)c1cn2cccnc2n1` [Compound 126, N-(4-(4-(Quinolin-2-yl)piperazin-1-yl)butyl)imidazo[1,2-a]pyrimidine-2-carboxamide], in assay [1], affinity was put at a Ki of 161 nM and the “D2/D3 (D3 selectivity ratio, D2 Ki/D3 Ki)” value is on record as 8. The compound also yielded a Ki in assay [2] of 1260 ± 142 nM.

In assay [2], `O=C(NCCCCN1CCN(c2cc(C(F)(F)F)nc3ccccc23)CC1)c1cn2ccccc2n1` [Compound 130, N-(4-(4-(2-(Trifluoromethyl)quinolin-4-yl)piperazin-1-yl)butyl)imidazo[1,2-a]pyridine-2-carboxamide] showed a Ki of 13600 ± 6260 nM.

With `CC(C)(C)c1nc(N2CCN(CCCCNC(=O)C3CCN(c4ccccc4)CC3)CC2)cc(C(F)(F)F)n1` [Compound 108, N-(4-(4-(2-(tert-Butyl)-6-(trifluoromethyl)pyrimidin-4-yl)piperazin-1-yl)butyl)-1-phenylpiperidine-4-carboxamide], in assay [2], the Ki was 809 ± 194 nM.

On to `O=C(NCCCCN1CCN(c2ccnc3cc(Cl)ccc23)CC1)c1cn2ccccc2n1` [Compound 118, N-(4-(4-(7-Chloroquinolin-4-yl)piperazin-1-yl)butyl)imidazo[1,2-a]pyridine-2-carboxamide], for which, in assay [2], the affinity corresponds to a Ki of 1880 ± 488 nM.

With `Cc1cc(N2CCN(CCCCNC(=O)c3cn4ccccc4n3)CC2)nc(C(C)(C)C)n1` [Compound 111, N-(4-(4-(2-(tert-Butyl)-6-methylpyrimidin-4-yl)piperazin-1-yl)butyl)imidazo[1,2-a]pyridine-2-carboxamide], affinity in assay [2] was put at a Ki of 366 nM. Against the preceding compound, the Ki is about 5.1-fold lower.

On to `Cc1nc(N2CCN(CCCCNC(=O)c3cn4ccccc4n3)CC2)cc(C(C)(C)C)n1` [Compound 125, N-(4-(4-(6-(tert-Butyl)-2-methylpyrimidin-4-yl)piperazin-1-yl)butyl)imidazo[1,2-a]pyridine-2-carboxamide], for which the Ki in assay [2] is 4600 ± 785 nM.

In the case of `CC(C)(C)c1nc(C2CC2)cc(N2CCN(CCCCNC(=O)c3cn4ccccc4n3)CC2)n1` [Compound 112, N-(4-(4-(2-(tert-Butyl)-6-cyclopropylpyrimidin-4-yl)piperazin-1-yl)butyl)imidazo[1,2-a]pyridine-2-carboxamide], in assay [2], the Ki was determined as 191 nM. Compared with the last compound, the Ki is about 24-fold lower.

The values are drawn from patent publication US9598387B2 (Southern Research Institute, priority 2012, dated 2017).
